These results are taken from patent US20090182135A1, “Amino modifiers” (priority 2007, published 2009).

For data set [1] the following is noted: commercially available trityl protecting groups, values stated without experiment; cited from earlier work.
Data set [2] in a line: Stability of the amino modifier reagent in acetonitrile. Format: physicochemical. The following applies: room temperature. The method, then: The sulfoxy derivative survives conditions of polynucleotide synthesis and can either be cleaved with standard deblock solution, or left intact for an HPLC purification. […] UV quantification for release of the new protecting group is possible. Extinction coefficients (L/(mol×cm) shown in the Scheme above were measured in 2% TFA/DCM.

Data set [3] can be described thus: pKR+ determination of trityl alcohols by UV spectrophotometry in aqueous sulphuric acid solutions (Deno acidity function HR). The following applies: for pKR+ (477 nm): absorbance at 477 nm. Format: physicochemical. The source says:
The physico-chemical properties of trityl cations have been thoroughly investigated. In 1955 Deno et al reported an empirical Acidity Function HR which allows the comparison of the stability of different trityl cations (N. C. Deno, J. J. Jaruzelski and A. Schriesheim, J. Am. Chem. Soc. 1955, 77, 3044). Using the acidity function and the methods described by Deno it is possible to evaluate the pKR+ parameter for trityl alcohol derivatives, which is a direct indication of the stability of the corresponding trityl cations.
Once the acidity function HR for a particular acidic solution is known, the pKR+ of a triarylcarbinol dissolved in that acidic solution can be calculated in a straightforward manner once the ratio [R^+]/[ROH] has been experimentally determined. Therefore, in order to determine pKR+ values in acidic solutions of known HR, the ratio [R^+]/[ROH] must be established or, what is the equivalent, the degree of ionization of the triarylcarbinol.
The [R^+]/[ROH] ratio can be determined by spectrophotometic means. In particular, for trityl derivatives, UV spectrophotometry is useful since trityl cations and their parent molecules show completely different absorption spectra in the UV region.
In general, the experimental procedure for determining pKR+ for a trityl alcohol is summarised as follows. A solution of the triaryl alcohol in question in acetic acid is prepared in a way that the final concentration of the solutions to be analysed by UV spectrometry are in the range of 10^−5 to 10^−7 molar. A constant amount of the acetic acid solution so prepared is then added to the solutions of sulphuric acid (for instance, using a micropipette) to carry out the UV spectrometry experiments. It is recommended that the values of E are measured at the λmax of the trityl cation.
Starting from the most concentrated sulphuric acid solutions, samples are prepared until it is observed that the absorbance of the samples starts to decay. In the range of concentrations prior to the decay of absorbance, the triaryl alcohol is dissolved in a sufficiently concentrated sulphuric to completely ionise it. Therefore, ε=εR. In the region of sulphuric acid concentrations in which the absorbance of the samples decays, a series of values for ε are collected.
Finally, a concentration of sulphuric acid is reached in which the absorbance at λmax is negligible (or the alcohol starts to precipitate). This indicates the end of the experiment and values for the [R^+]/[ROH] for a series of given HR are available.
The pKR+ can be determined using the equation
Using UV spectrometry, the λmax of the trityl cation was determined to be approximately 477 nm, as illustrated in FIG. 1. Absorbance values were recorded at this wavelength for different concentrations of sulphuric acid. […]

Read-outs that look alike come from different tables or passages of the source.

On to 4,4′-dimethoxytrityl [DMTr], for which the “pKR+” value in data set [1] is reported as −1.24.

Take `COc1ccc(C(NCCCCCCOP(OCCC#N)N(C(C)C)C(C)C)(c2ccc(OC)cc2)c2ccc([S+](C)[O-])cc2)cc1` (stereo not shown) [DMS(O)MTr amino modifier, 6-(4,4′-dimethoxy-4″-(methylsulfinyl)tritylamino)hexylolxy-(2-cyanoethoxy) diisopropylaminophosphine]: in data set [2], the “stability of the reagent in solution” value is “stable in acetonitrile at room temperature for at least two weeks”.

`COc1ccc(C(O)(c2ccc(C)cc2)c2ccc(C)cc2)cc1` [MDMeTrOH, 4-methoxy-4′,4″-dimethyltrityl alcohol]: the “pKR+ (477 nm)” value is −2.7 in data set [3] (H2SO4 20%), −2.6 in data set [3] (H2SO4 25%) and −2.5 in data set [3] (H2SO4 30%). For the same compound, the “pKR+” value in data set [3] (overall value for the trityl alcohol, UV at λmax of the trityl cation in sulphuric acid solutions) is on record as −2.6.

With monomethoxytrityl [MMTr], the “pKR+” value in data set [1] is reported as −3.40.
